Drawing on patent US12378220B2, “WNT signaling pathway inhibitors for treatments of disease” (University of Maryland, Baltimore, priority 2016, dated 2025), this text covers activity and IC50 for 16 molecules.

Molecules are shown by their SMILES. Like-named read-outs stand apart in the source and are kept apart here. A value given as a limit tells only on which side of the number the result lay.

The experiment relates to Wnt/β-catenin pathway. As to the kind of experiment: dual-luciferase TCF/LEF reporter assay, LiCl-activated, HEK293 cells. The conditions noted are these: for activity at 1 µM: HEK293, 24 h, At 1 μM concentration, remaining Wnt signaling activity, read-out: RLU % (Relative Light Units in reporter gene assays). It is filed as cell-based. As to the method: Lithium chloride (LiCl), which has been previously established as an activator of the Wnt/β-catenin pathway through its direct and indirect effects on GSK3β was used for pathway activation. The inhibition of the Wnt/β-catenin pathway by a compound may be determined after its incubation with cells for 24 hours.
The assay provided herein is a dual-luciferase assay to measure Wnt/β-catenin pathway activation using a TCF/LEF responsive reporter construct similar to that described previously (Thorne et al., 2010).
A general note: A reporter such as luciferase makes a cellular process visible.

Where [1] appears, read: Homo sapiens, HEK293, Table 3, values in μM, read-out: IC50.
Where [2] appears, read: Homo sapiens, HEK293, Table 5, read-out: IC50 (nM) or remaining activity at 1 μM: IC50.
Where [3] appears, read: Homo sapiens, HEK293, Table 3, values in nM, read-out: IC50.
Setting [4] is: Homo sapiens, HEK293, Table 6, read-out: IC50 (nM) or remaining activity at 1 μM: IC50.

Regarding `Cc1ccc(-n2nnc(C(=O)Nc3nc(-c4ccccc4)c(-c4ccccc4)s3)c2C)cc1` [YW1125, N-(4,5-diphenylthiazol-2-yl)-5-methyl-1-(p-tolyl)-1H-1,2,3-triazole-4-carboxamide], the activity at 1 µM (Homo sapiens) amounted to 55.1%.

For `Cc1ccccc1-n1nnc(C(=O)Nc2nc(-c3ccccc3)cs2)c1C` [Compound 30, 5-Methyl-N-(4-phenylthiazol-2-yl)-1-(o-tolyl)-1H-1,2,3-triazole-4-carboxamide], the IC50 (Table 7, read-out: IC50) is 22 µM.

As for `Cc1c(C(=O)Nc2ccc3ccccc3n2)nnn1-c1ccccc1-c1ccccc1` [YW1180, 1-([1,1′-biphenyl]-2-yl)-5-methyl-N-(quinolin-2-yl)-1H-1,2,3-triazole-4-carboxamide], the activity at 1 µM (Homo sapiens) is 104%. Besides, under setting [1], the IC50 came to 52 µM.

Take `Cc1ccc(-n2c(C)cc(C(=O)NCc3ccccc3)c2C)cc1` [YW1104, N-Benzyl-2,5-dimethyl-1-(p-tolyl)-1H-pyrrole-3-carboxamide]: the activity at 1 µM (Homo sapiens) is 92.9%. Further, the IC50 under setting [1] came to 49 µM.

Turning to `Cc1ccc(-n2nnc(C(=O)NCc3ccccn3)c2C)cc1` [Compound 25, 5-Methyl-N-(pyridin-2-ylmethyl)-1-(p-tolyl)-1H-1,2,3-triazole-4-carboxamide], under setting [2], the IC50 is greater than 1 µM.

Take `Cc1ccccc1-n1nnc(C(=O)Nc2nc3ccccc3s2)c1C` [YW1132, N-(benzo[d]thiazol-2-yl)-5-methyl-1-(o-tolyl)-1H-1,2,3-triazole-4-carboxamide]: the activity at 1 µM (Homo sapiens) was 4.9%. The IC50 under setting [3] came out at 0.034 µM.

As to `Cc1ccccc1-n1nnc(C(=O)Nc2ccc3ccccc3n2)c1C` [Compound 28, 5-Methyl-N-(quinolin-2-yl)-1-(o-tolyl)-1H-1,2,3-triazole-4-carboxamide], under setting [4], the IC50 was determined as 0.0063 µM.

On to `Cc1c(C(=O)Nc2ccc3ccccc3n2)nnn1-c1ccccc1N1CCOCC1` [YW1155, 5-Methyl-1-(2-morpholinophenyl)-N-(quinolin-2-yl)-1H-1,2,3-triazole-4-carboxamide], for which, where the note is “Homo sapiens”, the activity at 1 µM amounted to 99.8%.

On to `Cc1ccc(-n2nnc(C(=O)Nc3ccc4c(=O)cc(C)oc4c3)c2C)cc1` [YW1123, 5-Methyl-N-(2-methyl-4-oxo-4H-chromen-7-yl)-1-(p-tolyl)-1H-1,2,3-triazole-4-carboxamide], for which the activity at 1 µM (Homo sapiens) worked out at 87.6%.

For the molecule `Cc1ccc(-n2nnc(C(=O)Nc3cc(C)no3)c2C)cc1` [YW1124, 5-Methyl-N-(3-methylisoxazol-5-yl)-1-(p-tolyl)-1H-1,2,3-triazole-4-carboxamide], the activity at 1 µM (Homo sapiens) stood at 121%. In addition, the IC50 under setting [1] was found to be 48 µM.

Take `Cc1ccc(-n2nnc(C(=O)Nc3ccc4c(=O)cc(C)oc4c3)c2C)cc1` [Compound 26, 5-Methyl-N-(2-methyl-4-oxo-4H-chromen-7-yl)-1-(p-tolyl)-1H-1,2,3-triazole-4-carboxamide]: the IC50 under setting [2] was greater than 1 µM.

Turning to `Cc1ccc(-n2nnc(C(=O)Nc3cccc(C)n3)c2C)cc1` [YW1134, 5-Methyl-N-(6-methylpyridin-2-yl)-1-(p-tolyl)-1H-1,2,3-triazole-4-carboxamide], the activity at 1 µM (Homo sapiens) turned out to be 79.5%. Further, under setting [3], the IC50 was determined as 0.273 µM.

Regarding `CC(C)c1c(C(=O)Nc2ccc3ccccc3n2)nnn1-c1ccccc1F` [YW2020, 1-(2-Fluorophenyl)-5-isopropyl-N-(quinolin-2-yl)-1H-1,2,3-triazole-4-carboxamide], under “Homo sapiens”, the activity at 1 µM was 17.7%. Further, the IC50 under setting [3] was 0.177 µM.

For the molecule `Cc1ccccc1-n1nnc(C(=O)Nc2ccc3ccccc3c2)c1C` [Compound 31, 5-Methyl-N-(naphthalen-2-yl)-1-(o-tolyl)-1H-1,2,3-triazole-4-carboxamide], for the setting “Table 7, read-out: IC50”, the IC50 was found to be 0.471 µM.

Take `Cc1c(C(=O)Nc2ccc3ccccc3n2)nnn1-c1ccccc1Br` [YW1169, 1-(2-Bromophenyl)-5-methyl-N-(quinolin-2-yl)-1H-1,2,3-triazole-4-carboxamide]: the activity at 1 µM (Homo sapiens) amounted to 3.2%. Under setting [3], the IC50 came to 0.01 µM.

As to `Cc1c(C(=O)Nc2ccc3ccccc3n2)nnn1-c1ccccc1Br` [Compound 36, 1-(2-Bromophenyl)-5-methyl-N-(quinolin-2-yl)-1H-1,2,3-triazole-4-carboxamide], under setting [4], the IC50 came to 0.01 µM.

The IC50 is the concentration that inhibits the measured activity by half.
